Measured values taken from patent US20240132431A1, “METHOD FOR ALKYLATING ACIDIC FUNCTIONAL GROUP” (Chugai Seiyaku Kabushiki Kaisha, priority 2021, published 2024).

Target: T1, Bcl-2 protein (Recombinant Human Bcl-2 Protein) (Homo sapiens, UniProt P10415)
T1 construct: purchased Novus NBP2-34889
Test: Binding evaluation of mixture library compounds to Bcl-2 using AS-MS (affinity selection mass spectrometry)
Conditions: AS-MS on the mixture of 1200 library compounds, ASMS Ratio(%)=(A−C)/B×100; for ASMS ratio (%) n = 1: replicate n = 1; for ASMS ratio (%) n = 2: replicate n = 2
Outline: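 Bcl-2 binding is scored from LC/MS signal retained with protein through gel-filtration spin columns, normalised to unfiltered and protein-free controls. Incubation: 20 μM protein, […] per compound, 1 h, 23° C.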

T1 sequence (P10415 whole entry): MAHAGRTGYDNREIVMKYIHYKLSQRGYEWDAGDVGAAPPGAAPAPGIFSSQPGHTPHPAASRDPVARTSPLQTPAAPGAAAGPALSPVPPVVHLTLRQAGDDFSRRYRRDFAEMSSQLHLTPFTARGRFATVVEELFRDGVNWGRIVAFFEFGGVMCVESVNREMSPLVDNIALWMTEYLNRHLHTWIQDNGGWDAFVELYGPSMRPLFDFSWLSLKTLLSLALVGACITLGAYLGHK

SMILES	ASMS ratio (%) n = 1	ASMS ratio (%) n = 2
CCOc1cncc(-c2cc(CN3CCN(c4ccc(C(=O)N(C)CC56CC7CC(CC(C7)C5)C6)cc4)CC3)cc(C(F)(F)F)c2)c1 [B3A062-01, N-(1-Adamantylmethyl)-4-[4-[[3-(5-ethoxypyridin-3-yl)-5-(trifluoromethyl)phenyl]methyl]piperazin-1-yl]-N-methylbenzamide]	2.2%	2.8%
CCOc1cccc(-c2cc(CN3CCN(c4ccc(C(=O)N(C)CC56CC7CC(CC(C7)C5)C6)cc4)CC3)cc(OC(F)(F)F)c2)c1 [B3A063-01, N-(1-Adamantylmethyl)-4-[4-[[3-(3-ethoxyphenyl)-5-(trifluoromethoxy)phenyl]methyl]piperazin-1-yl]-N-methylbenzamide]		390.0%
CCOc1cncc(-c2cc(CN3CCN(c4ccc(C(=O)N(C)CC56CC7CC(CC(C7)C5)C6)cc4)CC3)cc(OC(F)(F)F)c2)c1 [B3A064-01, N-(1-Adamantylmethyl)-4-[4-[[3-(5-ethoxypyridin-3-yl)-5-(trifluoromethoxy)phenyl]methyl]piperazin-1-yl]-N-methylbenzamide]	−7.5%	−5.5%
CCOc1cccc(-c2ccc(CN3CCN(c4ccc(C(=O)N(C)CC56CC7CC(CC(C7)C5)C6)cc4)CC3)c3ccccc23)c1 [B3A065-01, N-(1-Adamantylmethyl)-4-[4-[[4-(3-ethoxyphenyl)naphthalen-1-yl]methyl]piperazin-1-yl]-N-methylbenzamide]	0.0%	0.0%
CCOc1cncc(-c2ccc(CN3CCN(c4ccc(C(=O)N(C)CC56CC7CC(CC(C7)C5)C6)cc4)CC3)c3ccccc23)c1 [B3A066-01, N-(1-Adamantylmethyl)-4-[4-[[4-(5-ethoxypyridin-3-yl)naphthalen-1-yl]methyl]piperazin-1-yl]-N-methylbenzamide]	6.3%	−2.9%
CCOc1cccc(-c2csc(CN3CCN(c4ccc(C(=O)N(C)CC56CC7CC(CC(C7)C5)C6)cc4)CC3)c2)c1 [B3A067-01, N-(1-Adamantylmethyl)-4-[4-[[4-(3-ethoxyphenyl)thiophen-2-yl]methyl]piperazin-1-yl]-N-methylbenzamide]	−7.3%	4.0%
CCOc1cncc(-c2csc(CN3CCN(c4ccc(C(=O)N(C)CC56CC7CC(CC(C7)C5)C6)cc4)CC3)c2)c1 [B3A068-01, N-(1-Adamantylmethyl)-4-[4-[[4-(5-ethoxypyridin-3-yl)thiophen-2-yl]methyl]piperazin-1-yl]-N-methylbenzamide]	1.4%	−3.6%
CCOc1cccc(C#Cc2ccccc2CN2CCN(c3ccc(C(=O)N(C)CC45CC6CC(CC(C6)C4)C5)cc3)CC2)c1 [B3A069-01, N-(1-Adamantylmethyl)-4-[4-[[2-[2-(3-ethoxyphenyl)ethynyl]phenyl]methyl]piperazin-1-yl]-N-methylbenzamide]		12872.1%
CCOc1cncc(C#Cc2ccccc2CN2CCN(c3ccc(C(=O)N(C)CC45CC6CC(CC(C6)C4)C5)cc3)CC2)c1 [B3A070-01, N-(1-Adamantylmethyl)-4-[4-[[2-[2-(5-ethoxypyridin-3-yl)ethynyl]phenyl]methyl]piperazin-1-yl]-N-methylbenzamide]	7.7%	−8.1%
CCOc1cccc(-c2ccccc2CN2CCN(c3ccc(C(=O)N(C)CC45CC6CC(CC(C6)C4)C5)nn3)CC2)c1 [B3A071-01, N-(1-Adamantylmethyl)-6-[4-[[2-(3-ethoxyphenyl)phenyl]methyl]piperazin-1-yl]-N-methylpyridazine-3-carboxamide]	3.2%	−4.7%
CCOc1cncc(-c2ccccc2CN2CCN(c3ccc(C(=O)N(C)CC45CC6CC(CC(C6)C4)C5)nn3)CC2)c1 [B3A072-01, N-(1-Adamantylmethyl)-6-[4-[[2-(5-ethoxypyridin-3-yl)phenyl]methyl]piperazin-1-yl]-N-methylpyridazine-3-carboxamide]	11.6%	3.1%
CCOc1cncc(-c2ccc(CN3CCN(c4ccc(C(=O)N(C)CC56CC7CC(CC(C7)C5)C6)nn4)CC3)cc2C)c1 [B3A074-01, N-(1-Adamantylmethyl)-6-[4-[[4-(5-ethoxypyridin-3-yl)-3-methylphenyl]methyl]piperazin-1-yl]-N-methylpyridazine-3-carboxamide]	10.7%	−17.2%
CCOc1cccc(-c2ccc(CN3CCN(c4ccc(C(=O)N(C)CC56CC7CC(CC(C7)C5)C6)nn4)CC3)c(CC)c2)c1 [B3A075-01, N-(1-Adamantylmethyl)-6-[4-[[4-(3-ethoxyphenyl)-2-ethylphenyl]methyl]piperazin-1-yl]-N-methylpyridazine-3-carboxamide]	−5.8%	−16.0%
CCOc1cncc(-c2ccc(CN3CCN(c4ccc(C(=O)N(C)CC56CC7CC(CC(C7)C5)C6)nn4)CC3)c(CC)c2)c1 [B3A076-01, N-(1-Adamantylmethyl)-6-[4-[[4-(5-ethoxypyridin-3-yl)-2-ethylphenyl]methyl]piperazin-1-yl]-N-methylpyridazine-3-carboxamide]	6.5%	−0.9%
CCOc1cccc(-c2ccc(CN3CCN(c4ccc(C(=O)N(C)CC56CC7CC(CC(C7)C5)C6)nn4)CC3)cc2F)c1 [B3A077-01, N-(1-Adamantylmethyl)-6-[4-[[4-(3-ethoxyphenyl)-3-fluorophenyl]methyl]piperazin-1-yl]-N-methylpyridazine-3-carboxamide]	4.1%	−2.8%
CCOc1cncc(-c2ccc(CN3CCN(c4ccc(C(=O)N(C)CC56CC7CC(CC(C7)C5)C6)nn4)CC3)cc2F)c1 [B3A078-01, N-(1-Adamantylmethyl)-6-[4-[[4-(5-ethoxypyridin-3-yl)-3-fluorophenyl]methyl]piperazin-1-yl]-N-methylpyridazine-3-carboxamide]	4.5%	−1.5%
CCOc1cccc(-c2ccc(CN3CCN(c4ccc(C(=O)N(C)CC56CC7CC(CC(C7)C5)C6)nn4)CC3)c(OC)c2)c1 [B3A079-01, N-(1-Adamantylmethyl)-6-[4-[[4-(3-ethoxyphenyl)-2-methoxyphenyl]methyl]piperazin-1-yl]-N-methylpyridazine-3-carboxamide]	−5.8%	5.4%
CCOc1cncc(-c2ccc(CN3CCN(c4ccc(C(=O)N(C)CC56CC7CC(CC(C7)C5)C6)nn4)CC3)c(OC)c2)c1 [B3A080-01, N-(1-Adamantylmethyl)-6-[4-[[4-(5-ethoxypyridin-3-yl)-2-methoxyphenyl]methyl]piperazin-1-yl]-N-methylpyridazine-3-carboxamide]	1.7%	−1.8%
